“Also recorded” adds a separate entry of the source.
What was measured:
cotton = experiment: Soil drought experiment, cotton; type: in vivo; conditions: 20 μM sprayed once every 3 days; re-watering after 6 days of drought; FIG. 9
Procedure: Soybean, cotton and wheat for leaf transpiration experiments were used simultaneously for soil drought experiments, each pot was filled with the same weight of soil to reduce experimental error. All the soybean plants were subjected to a long-day culture at 26° C. 14 days after sowing, watering was stopped and the plants with the consistent growth condition were selected for drought treatment. At the start of the drought, a solution containing 0.1% Tween-20 and 20 μM (+)-ABA/0224/0304 or 0.1% Tween-20 and 0.05% DMSO (control) was sprayed onto the leaf surface once with a spray amount of 4 ml solution/pot. Meanwhile, the position of the pot was changed and re-watered 6 days after the drought, and the photos were taken 1 day after re-watering. The drought experiment of cotton was similar to that of soybeans, watering was stopped 25 days after sowing, the plants with the consistent growth condition were selected for drought treatment. At the start of the drought, a solution containing 0.1% Tween-20 and 20 μM (+)-ABA/0224 or 0.1% Tween-20 and 0.05% DMSO (control) was sprayed onto the leaf surface once with a spray amount of 4 ml solution/pot, and then sprayed once every 3 days. Meanwhile, the position of the pot was changed and re-watered 6 days after the drought, and the photos were taken before re-watering and 1 day after re-watering. […]

[1] = tested on: PYL receptor triple mutant (pyr1;pyl1;pyl4) seeds; experiment: Seed germination, PYL receptor triple mutant; type: in vivo, Arabidopsis thaliana; conditions: 1 μM in 1/2 MS solid medium, 6 days after sowing; FIG. 3
Procedure: Take the compounds 0428 and 0224 of the present invention as examples. The seeds of Arabidopsis thaliana Col-0 ecotype and PYL receptor triple mutant (pyr1;pyl1;pyl4) were sterilized with NaClO and placed at 4° C. for 3 days of the vernalization, and then sown in ½ MS solid medium containing 1 μM (+)-ABA/0224 compound or 0.05% DMSO (control) or in ½ MS solid medium containing 2 μM (+)-ABA/compound 0428 of the present invention or 0.05% DMSO (control). Two lines of plant were sown simultaneously on each medium of 6 cm diameter, with 15-20 seeds sown for each line and 4 replicates for each compound. Culture medium was placed at 22° C. with long-day culture. The seeds germinated on a solid medium containing 1 μM (+)-ABA/0224 compound were photographed 6 days after sowing, and seeds germinated on solid medium containing 2 μM (+)-ABA/0428 compound were photographed 9 days after sowing.

soybean GmPYL6 protein = experiment: AlphaScreen assay, soybean GmPYL6 with Arabidopsis AtHAB1; type: biochemical; conditions: fraction of the EC50 of ABA; FIG. 13
Procedure: (§1) The AlphaScreen kit (available from Perkin Elmer) was used, and the method was as follows: a 10× buffer (50 mM MOPS, pH 7.4, 50 mM NaF, 50 mM CHAPS, 0.1 mg/ml bovine serum albumin) diluted at 1:10, each of 100 nM HAB1 with Biotin tag sequence and PYR1/PYL1/PYL2/PYL7/GmPYL6/OsPYL2 protein with dual tags of 6×His and SUMO sequences, corresponding concentrations of (+)-ABA/0224/0304/0706/0708/0713/0715/0428/NC0F4, and 5 μg/ml donor beads and acceptor beads (available from Perkin Elmer) were contained in 150 μl of experimental system. After incubating for 1.5 hours at room temperature in the dark, it was placed into an Envision Plate Reader (available from Perkin Elmer) under the programmed AlphaScreen procedure for readings.

rice OsPYL2 protein = biological target: T1, rice OsPYL2 protein (Oryza sativa subsp. japonica, UniProt Q5Z8S0); experiment: AlphaScreen assay, rice OsPYL2 with Arabidopsis AtHAB1; type: biochemical; conditions: fraction of the EC50 of ABA; FIG. 13
T1 construct: made in house; host or cells: E. coli BL21 (DE3)
T1 sequence (Q5Z8S0 1-207): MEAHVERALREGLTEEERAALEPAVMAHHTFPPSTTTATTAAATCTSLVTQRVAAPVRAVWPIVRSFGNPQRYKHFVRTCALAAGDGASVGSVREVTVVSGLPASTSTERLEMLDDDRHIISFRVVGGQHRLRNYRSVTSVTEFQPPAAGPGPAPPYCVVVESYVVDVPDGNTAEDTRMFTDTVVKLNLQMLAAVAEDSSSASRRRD
T1 sequence (Q9CAJ0 172-511 partner limits assumed): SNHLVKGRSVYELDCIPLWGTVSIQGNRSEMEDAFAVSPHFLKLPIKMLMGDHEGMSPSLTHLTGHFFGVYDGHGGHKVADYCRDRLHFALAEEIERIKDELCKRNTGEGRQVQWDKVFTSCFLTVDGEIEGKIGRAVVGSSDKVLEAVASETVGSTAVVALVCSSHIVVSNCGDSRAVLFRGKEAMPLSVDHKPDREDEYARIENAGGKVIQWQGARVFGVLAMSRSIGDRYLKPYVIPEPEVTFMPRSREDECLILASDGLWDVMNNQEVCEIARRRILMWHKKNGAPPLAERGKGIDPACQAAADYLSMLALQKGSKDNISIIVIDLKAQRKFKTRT
Procedure: as §1

SMILES	growth after drought and re-watering (cotton)	inhibition of seed germination of pyr1;pyl1;pyl4 triple mutant [1]	EC50 value for soybean GmPYL6 as fraction of that of ABA (soybean GmPYL6 protein)	EC50 value for rice OsPYL2 as fraction of that of ABA (rice OsPYL2 protein)
CCCN1C(=O)OC(C)c2cc(NS(=O)(=O)Cc3c(F)c(F)c(C)c(F)c3F)ccc21 (stereo not shown) [Compound 0224]	significantly better than that of the control group (DMSO) or that of the cotton treated with the same concentration of ABA; also recorded: significantly better growth after re-watering than that in the DMSO-sprayed control group and the plants sprayed with the same concentration of ABA	significantly reduced; also recorded: could not inhibit the seed germination of PYR/PYL triple mutant		
CCCN1C(=O)OCc2cc(NS(=O)(=O)Cc3c(F)c(F)c(C)c(F)c3F)ccc21 [Compound 0428]			about 1/14	⅓

Source: patent US11076597B2, “High stress resistant plant growth regulator and preparation method and use thereof” (SHANGHAI INSTITUTES FOR BIOLOGICAL SCIENCES, CHINESE …, priority 2015, dated 2021)
